Experiment: compacted bulk volume (tapped density, Ph. Eur. 4 / Carr packed bulk density)
Format: physicochemical
Experimental: The compacted bulk volume is determined by the test method of the European Pharmacopoeia 4 (2002): “apparent density after settling”/“density of settled product”, identical to the “tapped density”, measured in grams per millilitre) or as the “Carr packed bulk density” according to the ASTM standard (D6393-99, Standard Test Method for Bulk Solids Characterization by Carr Indices), measured in grams per cm^3. The compacted bulk volume is a measurement of the volume which is taken up by solid, comminuted materials after they have been compacted under defined conditions.

compacted bulk volume (crystalline salmeterol xinafoate as obtained from ethanol/tert.butylmethylether, before micronisation): 0.27 g/mL
compacted bulk volume (micronised salmeterol xinafoate (air jet mill, grinding pressure 7.5 bar, feed pressure 8.0 bar)): 0.19 g/mL
Compound: OCc1cc(C(O)CNCCCCCCOCCCCc2ccccc2)ccc1O (centres unmarked) [salmeterol xinafoate]

— US20070031347A1, “Powdered Medicaments Containing A Tiotropium Salt and Salmeterol Xinafoate” (Boehringer Ingelheim Pharma GmbH & Co. KG, priority 2002, published 2007)
